# From ChEMBL document CHEMBL3886572, “Cyclic amides” (2016)
# Target: Procathepsin L (Homo sapiens, UniProt P07711)
# Assay: Assay buffer: 100 mM potassium phosphate pH 6.5, EDTA-Na 5 mM, Triton X-100 0.001%, DDT 5 mM. […] AMC=7-Amino-4-Methyl-Coumarin. […] Excitation 360 nm, Emission 465 nm. Enzyme is added to the substance dilutions in 96-well microtitre plates and the reaction is started with substrate.
# Procathepsin L, sequence (P07711 whole entry): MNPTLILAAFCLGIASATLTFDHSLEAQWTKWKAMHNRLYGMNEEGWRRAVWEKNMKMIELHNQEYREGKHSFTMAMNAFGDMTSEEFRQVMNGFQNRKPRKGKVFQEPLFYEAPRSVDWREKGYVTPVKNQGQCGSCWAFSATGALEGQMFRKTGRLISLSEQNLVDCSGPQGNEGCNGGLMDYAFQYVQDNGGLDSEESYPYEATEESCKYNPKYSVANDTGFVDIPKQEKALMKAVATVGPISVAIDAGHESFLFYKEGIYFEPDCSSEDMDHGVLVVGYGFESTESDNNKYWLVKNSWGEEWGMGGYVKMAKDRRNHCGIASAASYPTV
smiles,measurement,value
N#Cc1ccc2c(c1)C(=O)N[C@H](C(=O)NC1(C#N)CC1)Cc1ccc(c(Cl)c1)OC/C=C/CO2,IC50,6.9 nM
